Laboratory results: US6197959A, “Piperidine derivatives” (Hoffmann-La Roche Inc., priority 1999, dated 2001)

Molecular target: T1, human renin (Homo sapiens, UniProt P00797)
T1 sequence (P00797 67-406): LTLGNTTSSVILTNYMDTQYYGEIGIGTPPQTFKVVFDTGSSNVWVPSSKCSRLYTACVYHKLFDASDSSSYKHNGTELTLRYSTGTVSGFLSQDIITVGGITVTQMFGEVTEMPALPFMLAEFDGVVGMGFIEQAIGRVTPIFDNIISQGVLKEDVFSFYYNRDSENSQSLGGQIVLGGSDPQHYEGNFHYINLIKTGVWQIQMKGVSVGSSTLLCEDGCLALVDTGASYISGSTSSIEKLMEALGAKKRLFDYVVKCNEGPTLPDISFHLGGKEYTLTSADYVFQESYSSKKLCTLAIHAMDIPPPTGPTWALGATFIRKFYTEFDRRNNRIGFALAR
Experiment: In vitro Test With Pure Human Renin
Assay type: biochemical
Settings: human tetradecapeptide substrate, pH 7.4, 3 h at 37° C., angiotensin I by RIA
Experimental: The tests can be carried out in analogy to those described by D. T. Pals et al. in Hypertension Vol. 8, 1105-1112 (1986) or J. Boger et al. in J. Med. Chem. 28, 1779-1790 (1985) or […] et al. in J. Med. Chem. 30, 2137-2144 (1987) or T. Kokubu et al. in Biochem. Biophys. Res. Commun. 118, 929-993 (1984): In vitro Test With Pure Human Renin The test is carried out in Eppendorf test tubes. The incubation mixture consists of (1) 100 μl of human renin in buffer A (0.1 M sodium phosphate solution, pH 7.4, containing 0.1% bovine serum albumin, 0.1% sodium aside and 1 mM ethylenediaminetetraacetic acid), sufficient for a renin activity of 2-3 ng of angiotensin I/ml/hr.; (2) 145 μl of buffer A: (3) 30 μl of 10 mM human tetradecapeptide renin substrate (hTD) in 10 mM hydrochloric acid: (4) 15 μl of dimethyl sulphoxide with or without inhibitor and (5) 10 μl of a 0.03 molar solution of hydroxyquinoline sulphate in water. The samples are incubated for three hours at 37° C. and, respectively, 4° C. in triplicate. 2×100 μl samples per test tube are used in order to measure the production of angiotensin I via RIA (standard radioimmunoassay; clinical assay solid phase kit). Cross reactivities of the antibody used in the RIA are: angiotensin I 100%; angiotensin II 0.0013%; hTD (angiotensin […]-OH) 0.09%. The production of angiotensin I is determined by the difference between the test at 37° C. and that at 4° C. The following controls are carried out: (a) Incubation of hTD samples without renin and without inhibitor at 37° C. and 4° C. The difference between these two values gives the base value of the angiotensin I production. (b) Incubation of hTD samples with renin, but without inhibitor at 37° C. and 4° C. The difference between these values gives the maximum value of the angiotensin I production. In each sample the base value of the angiotensin I production is subtracted from the angiotensin I production which is determined. […] The IC50 values are determined from a linear regression curve from a logit-log plot.

Row | SMILES | IC50
1 | CCOC(=O)CN1CCCc2ccc(CO[C@H]3CNCC[C@@H]3c3ccc(OCCCOCc4ccccc4OC)cc3)cc21 [B, (3R,4R)-[7-(4-[4-[3-(2-methoxy-benzyloxy)-propoxy]-phenyl]-piperidin-3-yloxymethyl)-3,4-dihydro-2H-quinolin-1-yl]-acetic acid ethyl ester] | 0.05 nM
2 | COc1ccccc1COCCCOc1ccc([C@H]2CCNC[C@@H]2OCc2ccc3c(c2)N(CCCO)CCC3)cc1 [C, (3R,4R)-3-[7-[4-[4-[3-(2-methoxy-benzyloxy)-propoxy]-phenyl]-piperidin-3-yloxymethyl]-3,4-dihydro-2H-quinolin-1-yl]-propan-1-ol] | 0.08 nM
3 | COc1ccccc1COCCCOc1ccc([C@H]2CCNC[C@@H]2OCc2ccc3c(c2)N(CCNS(N)(=O)=O)CCC3)cc1 [Compound I, (3R,4R)-N-[2-[7-[4-[4-[3-(2-methoxy-benzyloxy)-propoxy]-phenyl]-piperidin-3-yloxymethyl]-3,4-dihydro-2H-quinolin-1-yl]-ethyl]-sulfamide] | 0.06 nM
4 | COC(=O)CN1CCCc2ccc(CO[C@H]3CNCC[C@@H]3c3ccc(OCCCOCc4ccccc4OC)cc3)cc21 [D, (3R,4R)-[7-(4-[4-[3-(2-methoxy-benzyloxy)-propoxy]-phenyl]-piperidin-3-yloxymethyl)-3,4-dihydro-2H-quinolin-1-yl]-acetic acid methyl ester] | 0.02 nM
5 | COCCCN1CCCc2ccc(CO[C@H]3CNCC[C@@H]3c3ccc(OCCCOCc4ccccc4OC)cc3)cc21 [F, (3R,4R)-7-[4-[4-[3-(2-methoxy-benzyloxy)-propoxy]-phenyl]-piperidin-3-yloxymethyl)-1-(3-methoxy-propyl]-1,2,3,4-tetrahydro-quinoline] | 0.05 nM
6 | COc1ccccc1COCCCOc1ccc([C@H]2CCNC[C@@H]2OCc2ccc3c(c2)N(CC#N)CCC3)cc1 [G, (3R,4R)-[7-(4-[4-[3-(2-methoxy-benzyloxy)-propoxy]-phenyl]-piperidin-3-yloxymethyl)-3,4-dihydro-2H-quinolin-1-yl]-acetonitrile] | 0.07 nM
7 | COc1ccccc1COCCCOc1ccc([C@H]2CCNC[C@@H]2OCc2ccc3c(c2)N(CCNS(C)(=O)=O)CCC3)cc1 [H, (3R,4R)-N-[2-[7-[4-[4-[3-(2-methoxy-benzyloxy)-propoxy]-phenyl]-piperidin-3-yloxymethyl]-3,4-dihydro-2H-quinolin-1-yl]-ethyl]-methanesulfonamide] | 0.07 nM

Now from value to compound:

Row | IC50 | SMILES
8 | 0.04 nM | COC(=O)CCN1CCCc2ccc(COC3CNCC[C@@H]3c3ccc(OCCCOCc4ccccc4OC)cc3)cc21 (mixture of isomers) [E, (3RS,4R)-3-[7-(4-[4-[3-(2-methoxy-benzyloxy)-propoxy]-phenyl]-piperidin-3-yloxymethyl)-3,4-dihydro-2H-quinolin-1-yl]-propionic acid methyl ester]
9 | 0.05 nM | COc1ccccc1COCCCOc1ccc([C@H]2CCNC[C@@H]2OCc2ccc3c(c2)N(CCNC(C)=O)CCC3)cc1 [A, (3R,4R)-N-[2-[7-[4-[4-[3-(2-methoxy-benzyloxy)-propoxy]-phenyl]-piperidin-3-yloxymethyl]-3,4-dihydro-2H-quinolin-1-yl]-ethyl]-acetamide]
10 | 0.09 nM | COc1ccccc1COCCCOc1ccc([C@H]2CCNC[C@@H]2OCc2ccc3c(c2)N(CCNC(N)=O)CCC3)cc1 [J]
11 | 0.05 nM | COc1ccccc1COCCCOc1ccc([C@H]2CCNC[C@@H]2OCc2ccc3c(c2)N(CCNC(=O)C(F)(F)F)CCC3)cc1 [K, (3R,4R)-2,2,2-trifluoro-N-[2-[7-[4-[4-[3-(2-methoxy-benzyloxy)-propoxy]-phenyl]-piperidin-3-yloxymethyl]-3,4-dihydro-2H-quinolin-1-yl]-ethyl]-acetamide]
